Source: ChEMBL document CHEMBL1151101, “Irritant principles of the mezereon family (Thymelaeaceae), V. New skin irritants and tumor promoters of the daphnane and 1 alpha-alkyldaphnane type from Synaptolepis kirkii and Synaptolepis retusa” (J Nat Prod, 1988)

Tests used:
[1] = species on record: Mus musculus; assay: Skin irritant activity in NMRI mouse ear assessed as irritant dose 50 per ear after 24 hrs; format: ADME, organism-based; conditions: in vivo
[2] = species on record: Mus musculus; assay: Skin irritant activity in NMRI mouse ear assessed as irritancy after 24 hrs; format: ADME, organism-based; conditions: in vivo
[3] = species on record: Mus musculus; assay: Tumor promoting activity of DMBA-initiated tumor in back skin of NMRI mouse assessed as tumor rate at 20 nmol twice weekly measured after 12 weeks; format: organism-based, Zone of skin; conditions: in vivo, 2016 h
[4] = species on record: Mus musculus; assay: Tumor promoting activity of DMBA-initiated tumor in back skin of NMRI mouse assessed as tumor rate at 20 nmol twice weekly measured after 24 weeks; format: organism-based, Zone of skin; conditions: in vivo, 4032 h
[5] = species on record: Mus musculus; assay: Tumor promoting activity of DMBA-initiated tumor in back skin of NMRI mouse assessed as average tumor yeild at 20 nmol twice weekly measured after 12 weeks; format: organism-based, Zone of skin; conditions: in vivo, 2016 h
[6] = Tumor promoting activity of DMBA-initiated tumor in back skin of NMRI mouse assessed as survival rate at 20 nmol twice weekly measured after 24 weeks; format: organism-based, Zone of skin; conditions: in vivo, topical or ocular
[7] = species on record: Mus musculus; assay: Tumor promoting activity of DMBA-initiated tumor in back skin of NMRI mouse assessed as average tumor yeild at 20 nmol twice weekly measured after 24 weeks; format: organism-based, Zone of skin; conditions: in vivo, 4032 h
[8] = species on record: Mus musculus; assay: Tumor promoting activity of DMBA-initiated tumor in back skin of NMRI mouse assessed as average tumor yeild at 5 nmol twice weekly measured after 24 weeks; format: organism-based, Zone of skin; conditions: in vivo, 4032 h
[9] = Tumor promoting activity of DMBA-initiated tumor in back skin of NMRI mouse assessed as survival rate at 2.5 nmol twice weekly measured after 24 weeks; format: organism-based, Zone of skin; conditions: in vivo, topical or ocular
[10] = species on record: Mus musculus; assay: Tumor promoting activity of DMBA-initiated tumor in back skin of NMRI mouse assessed as tumor rate at 5 nmol twice weekly measured after 24 weeks; format: organism-based, Zone of skin; conditions: in vivo, 4032 h
[11] = species on record: Mus musculus; assay: Tumor promoting activity of DMBA-initiated tumor in back skin of NMRI mouse assessed as average tumor yeild at 5 nmol twice weekly measured after 12 weeks; format: organism-based, Zone of skin; conditions: in vivo, 2016 h
[12] = species on record: Mus musculus; assay: Tumor promoting activity of DMBA-initiated tumor in back skin of NMRI mouse assessed as average tumor yeild at 2.5 nmol twice weekly measured after 24 weeks; format: ADME, organism-based, Zone of skin; conditions: in vivo, 4032 h
[13] = species on record: Mus musculus; assay: Tumor promoting activity of DMBA-initiated tumor in back skin of NMRI mouse assessed as tumor rate at 2.5 nmol twice weekly measured after 24 weeks; format: organism-based, Zone of skin; conditions: in vivo, 4032 h
[14] = species on record: Mus musculus; assay: Tumor promoting activity of DMBA-initiated tumor in back skin of NMRI mouse assessed as tumor rate at 5 nmol twice weekly measured after 12 weeks; format: organism-based, Zone of skin; conditions: in vivo, 2016 h
[15] = Tumor promoting activity of DMBA-initiated tumor in back skin of NMRI mouse assessed as survival rate at 5 nmol twice weekly measured after 24 weeks; format: organism-based, Zone of skin; conditions: in vivo, topical or ocular
[16] = species on record: Mus musculus; assay: Tumor promoting activity of DMBA-initiated tumor in back skin of NMRI mouse assessed as tumor rate at 2.5 nmol twice weekly measured after 12 weeks; format: organism-based, Zone of skin; conditions: in vivo, 2016 h
[17] = species on record: Mus musculus; assay: Tumor promoting activity of DMBA-initiated tumor in back skin of NMRI mouse assessed as average tumor yeild at 2.5 nmol twice weekly measured after 12 weeks; format: ADME, organism-based, Zone of skin; conditions: in vivo, 2016 h
[18] = species on record: Mus musculus; assay: Tumor promoting activity of DMBA-initiated tumor in back skin of NMRI mouse assessed as tumor rate at 10 nmol twice weekly measured after 24 weeks; format: organism-based, Zone of skin; conditions: in vivo, 4032 h
[19] = Tumor promoting activity of DMBA-initiated tumor in back skin of NMRI mouse assessed as survival rate at 10 nmol twice weekly measured after 24 weeks; format: organism-based, Zone of skin; conditions: in vivo, topical or ocular
[20] = species on record: Mus musculus; assay: Tumor promoting activity of DMBA-initiated tumor in back skin of NMRI mouse assessed as tumor rate at 10 nmol twice weekly measured after 12 weeks; format: organism-based, Zone of skin; conditions: in vivo, 2016 h
[21] = species on record: Mus musculus; assay: Tumor promoting activity of DMBA-initiated tumor in back skin of NMRI mouse assessed as average tumor yeild at 10 nmol twice weekly measured after 24 weeks; format: organism-based, Zone of skin; conditions: in vivo, 4032 h
[22] = species on record: Mus musculus; assay: Tumor promoting activity of DMBA-initiated tumor in back skin of NMRI mouse assessed as average tumor yeild at 10 nmol twice weekly measured after 12 weeks; format: organism-based, Zone of skin; conditions: in vivo, 2016 h

With `C=C(C)[C@]12C[C@@H](C)[C@@]34O[C@](/C=C\C=C\CCCCCCCCCC)(O[C@@H]1[C@@H]3[C@@H]1O[C@]1(CO)[C@@H](O)[C@]1(O)C(=O)C(C)=C[C@H]14)O2` the Activity [1] was 0.02 nmol and the Activity [2] was 50 nmol⁻¹.
Work on `C=C(C)[C@]12O[C@@]3(/C=C/C=C/C=C\CCC)O[C@@H]1[C@@H]1[C@@H]4O[C@]4(CO)[C@@H](O)[C@]4(O)C(=O)C(C)=C[C@H]4[C@@]1(O3)[C@H](C)[C@H]2OC(C)=O` yielded an Activity [3] of 0%, an Activity [4] of 0% and an Activity [5] of 0. It also gave an Activity [1] of 1.1 nmol, an Activity [2] of 0.91 nmol⁻¹ and a survival at 4032 h [6] of 100%. It also gave an Activity [7] of 0.
Compound `C=C(C)[C@@]1(O)C[C@@H](C)[C@@]2(O)[C@H]([C@H]1OC(=O)/C=C/CCCCCCCCCCCCC)[C@@H]1O[C@]1(COC(=O)CCCCCCCCCCCCCCC)[C@@H](O)[C@]1(O)C(=O)C(C)=C[C@H]12` has an Activity [1] of 20 nmol and an Activity [2] of 0.15 nmol⁻¹.
With `C=C(C)[C@@]1(OC(=O)/C=C/CCCCCCCCCCCCC)C[C@@H](C)[C@@]2(O)[C@H]([C@H]1O)[C@@H]1O[C@]1(CO)[C@@H](O)[C@]1(O)C(=O)C(C)=C[C@H]12` the Activity [1] was 0.08 nmol and the Activity [2] was 13 nmol⁻¹.
Work on `C=C(C)[C@]12C[C@@H](C)[C@@]34O[C@](/C=C\C=C\CCCCC)(O[C@@H]1[C@@H]3[C@@H]1O[C@]1(CO)[C@@H](O)[C@]1(O)C(=O)C(C)=C[C@H]14)O2` yielded an Activity [1] of 0.15 nmol and an Activity [2] of 6.7 nmol⁻¹.
`C=C(C)[C@]12O[C@@]34/C=C/CCCCCCCCCCC[C@H](C)[C@H]5[C@H](C)C(=O)[C@@]6(O)[C@H](O)[C@@]7(CO)O[C@H]7[C@@H]([C@H]1O3)[C@](O4)([C@H](C)[C@H]2OC(C)=O)[C@H]56` showed an Activity [8] of 4.4, a survival at 4032 h [9] of 94% and an Activity [10] of 100%. It also gave an Activity [11] of 0.33, an Activity [12] of 0.6 and an Activity [13] of 27%. It also gave an Activity [14] of 33%, an Activity [1] of 0.01 nmol and a survival at 4032 h [15] of 99%. The Activity [16] was 0%, the Activity [2] was 100 nmol⁻¹ and the Activity [17] was 0.
In the case of `C=C(C)[C@@]1(O)C[C@@H](C)[C@@]2(O)[C@H]([C@H]1OC(=O)/C=C/CCCCCCCCCCCCC)[C@@H]1O[C@]1(CO)[C@@H](O)[C@]1(O)C(=O)C(C)=C[C@H]12`, the Activity [1] is reported as 0.035 nmol and the Activity [2] is reported as 29 nmol⁻¹.
In the case of `C=C(C)[C@]12C[C@@H](C)[C@@]34O[C@](/C=C/CCCCCCCCCCCCC)(O[C@@H]1[C@@H]3[C@@H]1O[C@]1(COC(=O)CCCCCCCCCCCCCCC)[C@@H](O)[C@]1(O)C(=O)C(C)=C[C@H]14)O2`, the Activity [1] is reported as 0.16 nmol and the Activity [2] is reported as 6.3 nmol⁻¹.
`C=C(C)[C@]12O[C@@]3(/C=C/C=C/CCCCCCCCC)O[C@@H]1[C@@H]1[C@@H]4O[C@]4(CO)[C@@H](O)[C@]4(O)C(=O)C(C)=C[C@H]4[C@@]1(O3)[C@H](C)[C@H]2OC(C)=O` gave an Activity [1] of 0.03 nmol and an Activity [2] of 33 nmol⁻¹.
Compound `C=C(C)[C@]12C[C@@H](C)[C@@]34O[C@](/C=C/CCCCCCCCCCCCC)(O[C@@H]1[C@@H]3[C@@H]1O[C@]1(CO)[C@@H](O)[C@]1(O)C(=O)C(C)=C[C@H]14)O2` has an Activity [8] of 2.9, an Activity [10] of 69% and an Activity [11] of 0.13. The Activity [18] was 100%, the survival at 4032 h [19] was 94% and the Activity [20] was 94%. The Activity [14] was 6%, the Activity [1] was 0.02 nmol and the survival at 4032 h [15] was 100%. The Activity [21] was 9.7, the Activity [2] was 50 nmol⁻¹ and the Activity [22] was 4.7.
`C=C(C)[C@]12C[C@@H](C)[C@@]34O[C@](CCCCCCCCCCCCCCC)(O[C@@H]1[C@@H]3[C@@H]1O[C@]1(CO)[C@@H](O)[C@]1(O)C(=O)C(C)=C[C@H]14)O2` gave an Activity [1] of 0.04 nmol and an Activity [2] of 25 nmol⁻¹.
For `C=C(C)[C@]12O[C@@]3(/C=C/C=C/CCCCC)O[C@@H]1[C@@H]1[C@@H]4O[C@]4(CO)[C@@H](O)[C@]4(O)C(=O)C(C)=C[C@H]4[C@@]1(O3)[C@H](C)[C@H]2O`, the Activity [1] was 0.92 nmol and the Activity [2] was 1.1 nmol⁻¹.
Compound `C=C(C)[C@@]12C[C@@H](C)[C@@]34O[C@@]5(/C=C/CCCCCCCCCCCC(C)[C@H]6[C@H](C)C(=O)[C@@](O)([C@H](O)[C@@]7(COC(=O)CCCCCCCCCCCCCCC)O[C@H]7[C@H]3[C@H]1O5)[C@@H]64)O2` (stereo partly specified) has an Activity [1] of 0.019 nmol and an Activity [2] of 53 nmol⁻¹.
`C=C(C)[C@]12O[C@@]3(/C=C/C=C/CCCCC)O[C@@H]1[C@@H]1[C@@H]4O[C@]4(CO)[C@@H](O)[C@]4(O)C(=O)C(C)=C[C@H]4[C@@]1(O3)[C@H](C)[C@H]2OC(C)=O` showed an Activity [3] of 0%, an Activity [4] of 14% and an Activity [5] of 0. It also gave an Activity [1] of 0.27 nmol, an Activity [2] of 3.7 nmol⁻¹ and a survival at 4032 h [6] of 88%. The Activity [7] was 0.36.
For `C=C(C)[C@]12O[C@@]3(/C=C/C=C/C=C\CCC)O[C@@H]1[C@@H]1[C@@H]4O[C@]4(CO)[C@@H](O)[C@]4(O)C(=O)C(C)=C[C@H]4[C@@]1(O3)[C@H](C)[C@H]2O`, the Activity [1] was 0.81 nmol and the Activity [2] was 1.2 nmol⁻¹.
In the case of `C=C(C)[C@]12O[C@@]34/C=C/CCCCCCCCCCCC(C)[C@H]5[C@H](C)C(=O)[C@@]6(O)[C@H](O)[C@@]7(CO)O[C@H]7[C@@H]([C@H]1O3)[C@](O4)([C@H](C)[C@H]2O)[C@H]56` (stereo partly specified), the Activity [8] is reported as 2.7, the survival at 4032 h [9] is reported as 100% and the Activity [10] is reported as 86%. It also gave an Activity [11] of 1.3, an Activity [12] of 2.9 and an Activity [13] of 87%. It also gave an Activity [14] of 60%, an Activity [1] of 0.0015 nmol and a survival at 4032 h [15] of 94%. It also gave an Activity [16] of 6.7%, an Activity [2] of 667 nmol⁻¹ and an Activity [17] of 0.33.
For `C=C(C)[C@@]12C[C@@H](C)[C@@]34O[C@@]5(/C=C/CCCCCCCCCCCC(C)(O)[C@H]6[C@H](C)C(=O)[C@@](O)([C@H](O)[C@@]7(CO)O[C@H]7[C@H]3[C@H]1O5)[C@@H]64)O2` (stereo partly specified), the Activity [1] was 0.016 nmol and the Activity [2] was 6 nmol⁻¹.
`C=C(C)[C@]12C[C@@H](C)[C@@]34O[C@](CCCCCCCCC)(O[C@@H]1[C@@H]3[C@@H]1O[C@]1(CO)[C@@H](O)[C@]1(O)C(=O)C(C)=C[C@H]14)O2` [SIMPLEXIN] gave an Activity [3] of 20%, an Activity [4] of 71% and an Activity [18] of 54%. For the same compound, the survival at 4032 h [19] was 93%, the Activity [20] was 4% and the Activity [5] was 0.6. It also gave an Activity [1] of 0.013 nmol, an Activity [21] of 1.7 and an Activity [2] of 77 nmol⁻¹. It also gave a survival at 4032 h [6] of 100%, an Activity [22] of 0.2 and an Activity [7] of 3.
